# Reference: US7238668B1, “Inhibition of lymphocyte adherence with CS-1-peptides and fragments thereof” (Fred Hutchinson Cancer Research Center, priority 1989, dated 2007)
# Ends that are not written are not given here.
# B1: rsa-CS-1 (peptide)
# peptide: DELPQLVTLPHPNLHGPEILDVPST
# modifications: also: conjugated to SMCC-derivatized rabbit serum albumin
# notes: also called CS-1-rsa; CS-1 (RSA conjugate)
# Columns and labels:
# Jurkat cells [1] = test: Jurkat cell adhesion to surfaces coated with peptide-rsa conjugates; format: cell-based, human
# Method: ^51Cr-labeled Jurkat cells ([…]) were incubated on surfaces coated with varying concentrations of peptide-rsa conjugates starting at 50 ug/ml (w/v) fragment or peptide (based on peptide not peptide-conjugate weight). […] (No adhesion=no measurable adhesion above negative controls.)
# Adhesion of various hematopoetic cell lines to CS-1 (open bars; FIG. 12) or LDV minimal peptide-coated surfaces (cross-hatched bars; FIG. 12) was tested as follows: Jurkat (T lymphoblastoid), A375 (melanoma), U937 (monocytic), Ramos (B lymphoblastoid), and ST-1 (EBV transformed B lymphoblastoid) cells were allowed to adhere to CS-1-rsa or LDVPST-rsa (5 ug/ml peptide) coated surfaces for 30 min at 37° C. At the end of this time the non-adherent cells were washed off and the adherent cells were solubilized in NaOH/SDS and quantitated in a gamma counter. The results are expressed as bound counts per minute.
# integrin receptor α4β1 [2] = target: T1, integrin receptor α4β1 (human, UniProt P13612 34-1032; P05556 21-798); test: adhesion of 51Cr-HT1080 cells to plasma fibronectin-coated plastic with hybridoma supernatant; SP2 control 100%
# integrin receptor α4β1 [3] = target: T1, integrin receptor α4β1; test: adhesion of T lymphocytes to 38 kDa-coated plastic with P4C2; IgG control 22680
# integrin receptor α4β1 [4] = target: T1, integrin receptor α4β1; test: cell-based or functional assay
# integrin receptor α4β1 [5] = target: T1, integrin receptor α4β1; test: adhesion of T lymphocytes to CS-2 (rabbit IgG conjugate)-coated plastic with P4C2; IgG control […]
# integrin receptor α4β1 [6] = target: T1, integrin receptor α4β1; test: adhesion of 51Cr-PBL to plasma fibronectin-coated plastic with hybridoma supernatant; SP2 control 100%
# integrin receptor α4β1 [7] = target: T1, integrin receptor α4β1; test: adhesion of 51Cr-Molt 4 cells to plasma fibronectin-coated plastic with hybridoma supernatant; SP2 control 100%
# integrin receptor α4β1 [8] = target: T1, integrin receptor α4β1; test: adhesion of 51Cr-Jurkat cells to plasma fibronectin-coated plastic with hybridoma supernatant; SP2 control 100%
# integrin receptor α4β1 [9] = target: T1, integrin receptor α4β1; test: adhesion of T lymphocytes to 80 kDa-coated plastic with P4C2; IgG control 8580
# integrin receptor α4β1 [10] = target: T1, integrin receptor α4β1; test: adhesion of T lymphocytes to CS-1 (rabbit IgG conjugate)-coated plastic with P4C2; IgG control 44339
# [11] = system: LAD (B) lymphocyte adhesion to HUVE monolayers; test: Endothelial cell adhesion assay, LAD cells on HUVE monolayers; format: cell-based, human; conditions: for Adhesion (cpm) +IL-1β: IL-1β activated HUVE; for Adhesion (cpm) Basal: basal HUVE, no peptide 44860
# Method: (§1) HUVEs were incubated with IL-1 β (1 ng/ml) or in some experiments with TNF α (10 ng/ml) for 6–24 hours. At the end of this incubation the HUVE monolayers were washed and used in the adhesion assay.
# (§2) Human umbilical vein endothelial cells (HUVEs) were cultured in 48 well plates as described (supra). To measure adherence of lymphocytes to HUVE monolayer cultures, lymphocytes were labeled with Na2 ^51CrO4 (50 μCi/ml) for 2–4 hours), washed, and then 10^5 lymphocytes were incubated with HUVE monolayers in the presence or absence of inhibitory antibodies or CS-1 derived peptides. The lymphocytes were allowed to adhere for 30 minutes at 37°. Non-adherent cells were subsequently removed by washing with PBS, and the adherent cells were dissolved in SDS/NaOH. Bound ^51Cr-cpm were quantitated in a gamma counter. In some experiments, endothelial cells were activated prior to the adhesion assay by incubating with IL-1 β (1 ng/ml) or […] (10 ng/ml) for 6–24 hours in defined CS-100 media (Cell Systems, Seattle, Wash.).
# [12] = system: Jurkat (T) lymphocyte adhesion to HUVE monolayers; test: Endothelial cell adhesion assay, Jurkat cells on HUVE monolayers; format: cell-based, human; conditions: for Adhesion (cpm) +IL-1β: IL-1β activated HUVE; for Adhesion (cpm) Basal: basal HUVE, no peptide 161092
# Method: as §1, §2
# Jurkat cells [13] = test: Peptide inhibition of Jurkat cell adhesion to plasma fibronectin (50% inhibition point); format: cell-based, human; conditions: read-out: Molar Concentration (mM) required for 50% inhibition of Jurkat cell adhesion to plasma fibronectin; fibronectin 5 ug/ml; 30 min
# Method: For peptide inhibition studies, ^51Cr-labeled test cells were pre-incubated with CS-1 derived peptides at various concentrations for 15 min at room temperature. The test cells were then allowed to attach to fibronectin-coated surfaces in the presence of exogenous test peptides for 30–60 min. The assay then proceeded as described above.
# For these experiments in Table XIII ^51Cr-labeled Jurkat cells (10^5/well) were incubated in the presence of the varying concentrations (starting at 2 mg/ml) of the indicated peptides for 15 min. The Jurkat cells were then allowed to adhere to plasma fibronectin-coated surfaces (5 ug/ml) in the presence of the peptides for 30 min. Adhesion to fibronectin was graphically depicted as cpm bound to the fibronectin surface (Y axis), plotted as a function of molar peptide concentration (X axis).
# [14] = system: Ramos (B) lymphocyte adhesion to HUVE monolayers; test: Endothelial cell adhesion assay, Ramos cells on HUVE monolayers; format: cell-based, human; conditions: for Adhesion (cpm) +IL-1β: IL-1β activated HUVE; for Adhesion (cpm) Basal: basal HUVE, no peptide 2724
# Method: as §1, §2
# [15] = system: T lymphocytes (Jurkat or Molt 4 cells); test: T lymphocyte adhesion to plasma fibronectin, tryptic fragments and CS peptides; format: cell-based, human
# Method: Antibodies that would alter cell adhesion to purified plasma fibronectin, tryptic fragments and CS peptides were identified as previously described (Wayner and Carter, 1987). […] The plates were blocked with PBS supplemented with 10 mg/ml heat denatured BSA (HBSA). T lymphocyte or HT1080 cells were labeled with Na2 ^51CrO4 (50 μlCi/ml for 2–4 hr), washed, and 5×10^4 HT1080 or cultured T cells or […] were incubated with hybridoma culture supernatants (1:2 dilution in PBS supplemented with 1 mg/ml heat denatured BSA) or control myeloma cell culture supernatant for 15 minutes at room temperature. The cells were allowed to adhere to the protein-coated surfaces in the presence of the hybridoma supernatants for 15–30 minutes (HT1080) or 2–4 hours (lymphocytes) at 37° C. Non-adherent cells were removed by washing with PBS, and the adherent cells were dissolved in SDS/NaOH and bound ^51Cr-cpm were quantitated in a gamma counter.
# Human plasma fibronectin was a generous gift from Drs. Horowitz and R. Schulman (New York Blood Center, N.Y.). […] Two overlapping peptides spanning the initial 48 residues of the IIICS region of human fibronectin (CS-1 and CS-2) were synthesized and coupled to rabbit IgG as described (Humphries et al., 1986, and Humphries et al., 1987, J. Biol. Chem. 262:6886–6892).
# integrin receptor α4β1 [16] = target: T1, integrin receptor α4β1; test: adhesion of 51Cr-Jurkat cells to surfaces coated with graded peptide-rsa conjugate; 50% of total input cpm, read from plot
# Method: Therefore, peptide-conjugates were prepared using rabbit serum albumin (rsa) as a carrier and the conjugates were tested for their ability to support cell adhesion. […] The adhesion experiments presented in Table XIV were conducted as follows:
# (No adhesion=no measurable adhesion above negative controls.)
# T1 sequence (P13612 34-1032, form in doubt, chain 1 of 2): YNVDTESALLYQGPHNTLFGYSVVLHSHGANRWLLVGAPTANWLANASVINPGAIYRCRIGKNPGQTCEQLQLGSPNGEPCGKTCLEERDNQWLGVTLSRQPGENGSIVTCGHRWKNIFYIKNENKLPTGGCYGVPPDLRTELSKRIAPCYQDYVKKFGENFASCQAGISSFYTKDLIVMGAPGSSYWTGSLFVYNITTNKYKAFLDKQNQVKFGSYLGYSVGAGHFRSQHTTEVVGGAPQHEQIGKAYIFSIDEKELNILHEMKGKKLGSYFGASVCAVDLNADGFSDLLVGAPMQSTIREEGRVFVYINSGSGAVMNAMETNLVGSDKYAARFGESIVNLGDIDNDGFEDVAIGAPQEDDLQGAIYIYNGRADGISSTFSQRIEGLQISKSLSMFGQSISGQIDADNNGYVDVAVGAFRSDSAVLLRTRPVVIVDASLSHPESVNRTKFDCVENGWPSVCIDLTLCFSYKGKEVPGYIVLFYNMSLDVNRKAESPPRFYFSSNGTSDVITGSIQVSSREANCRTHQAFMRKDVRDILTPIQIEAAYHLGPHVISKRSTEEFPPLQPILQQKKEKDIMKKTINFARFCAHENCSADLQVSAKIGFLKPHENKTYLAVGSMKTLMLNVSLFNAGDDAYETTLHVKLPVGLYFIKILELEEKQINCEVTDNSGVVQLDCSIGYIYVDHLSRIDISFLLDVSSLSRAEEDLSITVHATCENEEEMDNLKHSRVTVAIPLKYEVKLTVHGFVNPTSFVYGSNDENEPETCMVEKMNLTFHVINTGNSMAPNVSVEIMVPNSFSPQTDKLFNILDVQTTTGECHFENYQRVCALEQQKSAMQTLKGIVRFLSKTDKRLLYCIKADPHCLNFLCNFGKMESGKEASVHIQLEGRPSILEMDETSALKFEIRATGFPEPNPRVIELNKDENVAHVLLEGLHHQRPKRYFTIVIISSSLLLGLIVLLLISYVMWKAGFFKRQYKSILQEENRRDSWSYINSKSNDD
# T1 sequence (P05556 21-798, form in doubt, chain 2 of 2): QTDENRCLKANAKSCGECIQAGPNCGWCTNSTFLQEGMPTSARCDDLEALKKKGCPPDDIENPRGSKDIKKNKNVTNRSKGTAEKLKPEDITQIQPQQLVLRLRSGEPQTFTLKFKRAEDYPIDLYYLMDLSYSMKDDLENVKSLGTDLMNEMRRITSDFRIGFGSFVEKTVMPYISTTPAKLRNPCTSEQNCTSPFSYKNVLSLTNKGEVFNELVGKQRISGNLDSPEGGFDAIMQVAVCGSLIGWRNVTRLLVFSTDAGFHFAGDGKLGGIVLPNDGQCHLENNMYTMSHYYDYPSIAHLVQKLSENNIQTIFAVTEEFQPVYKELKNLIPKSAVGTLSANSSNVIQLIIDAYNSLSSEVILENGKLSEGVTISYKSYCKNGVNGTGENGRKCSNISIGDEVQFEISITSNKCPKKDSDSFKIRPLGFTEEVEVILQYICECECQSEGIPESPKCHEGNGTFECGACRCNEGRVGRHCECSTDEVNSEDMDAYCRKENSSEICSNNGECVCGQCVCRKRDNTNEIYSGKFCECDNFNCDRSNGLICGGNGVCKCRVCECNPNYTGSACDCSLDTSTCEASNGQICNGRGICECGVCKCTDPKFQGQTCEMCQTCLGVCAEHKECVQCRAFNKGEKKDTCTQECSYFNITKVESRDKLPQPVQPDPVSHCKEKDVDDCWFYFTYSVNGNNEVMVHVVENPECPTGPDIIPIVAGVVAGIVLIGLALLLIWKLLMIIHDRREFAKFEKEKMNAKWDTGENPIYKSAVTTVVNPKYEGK
molecule,measurement,setting,value
rsa-LDV: LDV conjugated to rabbit serum albumin (Leu-Asp-Val; also: conjugated to rabbit serum albumin),EC50,"Jurkat cells [1]; peptide-rsa conjugate coated surfaces, 50% of total input cpm, read-out: Molar Concentration (nM) required for 50% adhesion of Jurkat cells",> 2000 nM
rsa-A13: A13 peptide conjugated to rabbit serum albumin (DELPQLVTLPHPN; also: conjugated to rabbit serum albumin),Molar Concentration (nM) required for 50% adhesion of Jurkat cells,"Jurkat cells [1]; peptide-rsa conjugate coated surfaces, 50% of total input cpm",No Adhesion
monoclonal antibody P4C2,Fibronectin Adhesion (% Control),integrin receptor α4β1 [2],93 % Control
same,T lymphocyte adhesion (unit not given),integrin receptor α4β1 [3],114
same,"Adhesion (cpm), Jurkat (T) on HUVE monolayers, +IL-1β; SP2 control 372159",integrin receptor α4β1 [4],137000 cpm
same,"Adhesion (cpm), Jurkat (T) on HUVE monolayers, Basal; SP2 control 83924",integrin receptor α4β1 [4],23100 cpm
same,"Adhesion (cpm), LAD (B) on HUVE monolayers, +IL-1β; SP2 control 104672",integrin receptor α4β1 [4],38100 cpm
same,"Adhesion (cpm), LAD (B) on HUVE monolayers, Basal; SP2 control 19542",integrin receptor α4β1 [4],6460 cpm
same,"Adhesion (cpm), Ramos (B) on HUVE monolayers, +IL-1β; SP2 control 12157",integrin receptor α4β1 [4],3690 cpm
same,"Adhesion (cpm), Ramos (B) on HUVE monolayers, Basal; SP2 control 972",integrin receptor α4β1 [4],456 cpm
same,T lymphocyte adhesion (unit not given),integrin receptor α4β1 [5],535
same,Fibronectin Adhesion (% Control),integrin receptor α4β1 [6],10 % Control
same,Fibronectin Adhesion (% Control),integrin receptor α4β1 [7],8 % Control
same,Fibronectin Adhesion (% Control),integrin receptor α4β1 [8],12 % Control
same,T lymphocyte adhesion (unit not given),integrin receptor α4β1 [9],7150
same,T lymphocyte adhesion (unit not given),integrin receptor α4β1 [10],841
VPST [Peptide 350],Adhesion (cpm) +IL-1β,"[11]; Table XI, no peptide 71408",98860 cpm
same,Adhesion (cpm) +IL-1β,"[11]; peptides, Table X",42728 cpm
same,Adhesion (cpm) Basal,[11]; Table XI,38176 cpm
same,Adhesion (cpm) +IL-1β,"[12]; Table XI, no peptide 314848",322208 cpm
same,Adhesion (cpm) +IL-1β,"[12]; peptides, Table X",127544 cpm
same,Adhesion (cpm) Basal,[12]; Table XI,203716 cpm
same,IC50,Jurkat cells [13],> 2.5 mM
same,Adhesion (cpm) +IL-1β,"[14]; Table XI, no peptide 12936",15320 cpm
same,Adhesion (cpm) +IL-1β,"[14]; peptides, Table X",4568 cpm
same,Adhesion (cpm) Basal,[14]; Table XI,4168 cpm
"CS-1 (rabbit IgG conjugate): CS-1 peptide coupled to rabbit IgG (DELPQLVTLPHPNLHGPEILDVPST; also: coupled to rabbit IgG, site not given here)",T lymphocyte attachment to peptide (rabbit IgG conjugate)-coated plastic surfaces,[15],recognize and attach
leu-asp-val (Leu-Asp-Val; not fully specified; printed as leu-asp-val) [LDV],IC50,Jurkat cells [13],> 2.7 mM
LDVPST [Peptide 351],Adhesion (cpm) +IL-1β,"[11]; Table XI, no peptide 71408",92792 cpm
same,Adhesion (cpm) Basal,[11]; Table XI,39700 cpm
same,Adhesion (cpm) +IL-1β,"[12]; Table XI, no peptide 314848",326260 cpm
same,Adhesion (cpm) Basal,[12]; Table XI,166948 cpm
same,IC50,Jurkat cells [13],> 1.6 mM
same,Adhesion (cpm) +IL-1β,"[14]; Table XI, no peptide 12936",15092 cpm
same,Adhesion (cpm) Basal,[14]; Table XI,3532 cpm
VPST-rsa: VPST conjugated to rabbit serum albumin (also: conjugated to rabbit serum albumin),Induction of stable cell adhesion,"Jurkat cells [1]; FIGS. 13-15, Jurkat, U937 and HUT 78 cells",relatively inactive in inducing stable cell adhesion
"DELPQLVTLPHPN [Peptide A13, N-terminal peptide of CS-1]",IC50,Jurkat cells [13],> 1 mM
"CS-2 (rabbit IgG conjugate): CS-2 peptide of the IIICS region coupled to rabbit IgG (PSTVQKTPFVTHPGYDTGNGIQLPGT; also: coupled to rabbit IgG, site not given here)",T lymphocyte attachment to peptide (rabbit IgG conjugate)-coated plastic surfaces,[15],do not attach
"LHGPEILDVPST (also: conjugated to SMCC-derivatized rabbit serum albumin, also called B12-rsa conjugate) [rsa-B12]",Molar Concentration required for 50% adhesion of Jurkat cells,integrin receptor α4β1 [16],492 nM
"EILDV (also: conjugated to SMCC-derivatized rabbit serum albumin, also called EILDV-RSA) [rsa-EILDV]",Molar Concentration required for 50% adhesion of Jurkat cells,integrin receptor α4β1 [16],1130 nM
B1,Molar Concentration required for 50% adhesion of Jurkat cells,integrin receptor α4β1 [16],115 nM
